Assays:
Assay type in all cases: biochemical
[1] = molecular target: T1, SIK1 (SEQ ID NO: 10) (Homo sapiens, UniProt P57059); test: Protein kinase assay, SIK1; settings: read-out: SIK1 (SEQ ID NO: 10) kinase inhibition result
T1 construct: Reaction Biology Corporation (assay service, HotSpot panel)
Method in brief: (§1)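 Radiometric assay in HEPES pH 7.5 with MgCl2, EGTA, Brij35, BSA, Na3VO4, DTT and 1% DMSO; compound added ~20 min before ATP plus 33P-ATP (10 μM final). IC50 from curve fits.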

[2] = molecular target: T2, SIK3 (QSK) (SEQ ID NO: 24) (Homo sapiens, UniProt Q9Y2K2); test: Protein kinase assay, SIK3; settings: read-out: SIK3 (QSK) (SEQ ID NO: 24) kinase inhibition result
T2 construct: Reaction Biology Corporation (assay service, HotSpot panel)
T2 sequence (Q9Y2K2 whole entry): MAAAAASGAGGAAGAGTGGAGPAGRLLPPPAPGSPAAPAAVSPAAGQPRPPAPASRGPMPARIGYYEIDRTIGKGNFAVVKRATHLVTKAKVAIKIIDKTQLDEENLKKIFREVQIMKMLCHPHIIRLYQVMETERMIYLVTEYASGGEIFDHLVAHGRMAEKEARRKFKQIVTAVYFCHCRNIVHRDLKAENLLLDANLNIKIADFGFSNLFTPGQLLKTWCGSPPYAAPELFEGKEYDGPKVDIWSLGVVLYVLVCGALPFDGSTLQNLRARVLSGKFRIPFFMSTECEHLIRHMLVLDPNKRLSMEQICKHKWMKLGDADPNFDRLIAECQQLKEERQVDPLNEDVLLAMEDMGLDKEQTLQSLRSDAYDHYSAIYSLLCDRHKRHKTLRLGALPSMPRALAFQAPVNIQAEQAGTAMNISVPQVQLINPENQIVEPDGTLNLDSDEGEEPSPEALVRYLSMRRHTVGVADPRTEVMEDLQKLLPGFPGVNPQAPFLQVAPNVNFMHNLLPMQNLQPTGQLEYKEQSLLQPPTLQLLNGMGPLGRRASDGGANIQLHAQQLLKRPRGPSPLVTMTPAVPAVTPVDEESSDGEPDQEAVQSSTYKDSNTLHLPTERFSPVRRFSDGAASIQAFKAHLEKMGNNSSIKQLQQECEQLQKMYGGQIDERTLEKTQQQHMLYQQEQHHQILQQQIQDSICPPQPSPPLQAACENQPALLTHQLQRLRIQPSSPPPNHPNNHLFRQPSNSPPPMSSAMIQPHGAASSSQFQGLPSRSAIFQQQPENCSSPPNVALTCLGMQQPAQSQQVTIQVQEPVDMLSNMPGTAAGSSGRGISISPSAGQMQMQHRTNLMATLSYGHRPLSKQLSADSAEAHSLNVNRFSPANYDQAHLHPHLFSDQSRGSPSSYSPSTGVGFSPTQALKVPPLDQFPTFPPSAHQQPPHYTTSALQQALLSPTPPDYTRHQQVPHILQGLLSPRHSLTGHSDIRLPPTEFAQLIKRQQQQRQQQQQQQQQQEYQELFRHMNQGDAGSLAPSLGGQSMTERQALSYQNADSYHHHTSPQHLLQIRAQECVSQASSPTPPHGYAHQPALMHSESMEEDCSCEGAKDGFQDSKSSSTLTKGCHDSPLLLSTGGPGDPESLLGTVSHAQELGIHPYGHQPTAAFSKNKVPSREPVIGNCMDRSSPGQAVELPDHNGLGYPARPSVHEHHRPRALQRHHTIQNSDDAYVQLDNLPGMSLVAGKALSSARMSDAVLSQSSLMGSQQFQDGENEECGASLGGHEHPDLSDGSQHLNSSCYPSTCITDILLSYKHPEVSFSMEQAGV
Method in brief: as §1

[3] = molecular target: SIK2 (QIK) (SEQ ID NO: 11) (Homo sapiens, UniProt Q9H0K1); test: SIK2 kinase assay (radiometric, 10 μM ATP); settings: read-out: SIK2 (QIK) (SEQ ID NO: 11) kinase inhibition result
Chain of SIK2 (QIK) (SEQ ID NO: 11) (Q9H0K1 whole entry): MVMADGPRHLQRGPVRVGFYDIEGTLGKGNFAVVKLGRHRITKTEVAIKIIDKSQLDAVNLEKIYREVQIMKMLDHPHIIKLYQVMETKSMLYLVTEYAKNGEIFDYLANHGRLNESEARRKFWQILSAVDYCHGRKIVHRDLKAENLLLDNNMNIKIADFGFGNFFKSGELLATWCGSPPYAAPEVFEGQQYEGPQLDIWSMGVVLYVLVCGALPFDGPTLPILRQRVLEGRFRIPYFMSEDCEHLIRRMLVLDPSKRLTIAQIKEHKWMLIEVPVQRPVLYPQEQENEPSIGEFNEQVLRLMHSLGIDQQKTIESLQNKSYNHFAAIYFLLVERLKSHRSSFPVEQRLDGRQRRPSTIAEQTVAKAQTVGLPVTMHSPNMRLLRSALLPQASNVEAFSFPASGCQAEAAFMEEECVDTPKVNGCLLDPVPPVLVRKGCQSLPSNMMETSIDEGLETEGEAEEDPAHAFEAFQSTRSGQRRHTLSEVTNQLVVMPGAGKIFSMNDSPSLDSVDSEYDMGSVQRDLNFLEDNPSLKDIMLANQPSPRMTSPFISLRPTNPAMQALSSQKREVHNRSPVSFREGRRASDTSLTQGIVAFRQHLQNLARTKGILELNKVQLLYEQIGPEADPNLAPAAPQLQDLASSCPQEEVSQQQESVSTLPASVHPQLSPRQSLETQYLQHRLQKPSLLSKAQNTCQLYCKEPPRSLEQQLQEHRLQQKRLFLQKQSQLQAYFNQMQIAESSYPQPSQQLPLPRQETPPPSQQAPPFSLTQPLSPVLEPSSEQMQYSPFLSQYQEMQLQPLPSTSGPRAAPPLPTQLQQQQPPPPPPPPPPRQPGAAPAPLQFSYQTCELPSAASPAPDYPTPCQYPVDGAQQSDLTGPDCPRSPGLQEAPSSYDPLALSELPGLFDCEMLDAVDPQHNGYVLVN
Method in brief: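 Radiometric filter-binding format: enzyme and substrate peptide incubated with or without compound and ATP mix for 20 min at 30 °C. Reaction stopped with phosphoric acid, captured on filter mats and washed with 0.8% phosphoric acid before counting.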

T1 sequence (P57059 whole entry): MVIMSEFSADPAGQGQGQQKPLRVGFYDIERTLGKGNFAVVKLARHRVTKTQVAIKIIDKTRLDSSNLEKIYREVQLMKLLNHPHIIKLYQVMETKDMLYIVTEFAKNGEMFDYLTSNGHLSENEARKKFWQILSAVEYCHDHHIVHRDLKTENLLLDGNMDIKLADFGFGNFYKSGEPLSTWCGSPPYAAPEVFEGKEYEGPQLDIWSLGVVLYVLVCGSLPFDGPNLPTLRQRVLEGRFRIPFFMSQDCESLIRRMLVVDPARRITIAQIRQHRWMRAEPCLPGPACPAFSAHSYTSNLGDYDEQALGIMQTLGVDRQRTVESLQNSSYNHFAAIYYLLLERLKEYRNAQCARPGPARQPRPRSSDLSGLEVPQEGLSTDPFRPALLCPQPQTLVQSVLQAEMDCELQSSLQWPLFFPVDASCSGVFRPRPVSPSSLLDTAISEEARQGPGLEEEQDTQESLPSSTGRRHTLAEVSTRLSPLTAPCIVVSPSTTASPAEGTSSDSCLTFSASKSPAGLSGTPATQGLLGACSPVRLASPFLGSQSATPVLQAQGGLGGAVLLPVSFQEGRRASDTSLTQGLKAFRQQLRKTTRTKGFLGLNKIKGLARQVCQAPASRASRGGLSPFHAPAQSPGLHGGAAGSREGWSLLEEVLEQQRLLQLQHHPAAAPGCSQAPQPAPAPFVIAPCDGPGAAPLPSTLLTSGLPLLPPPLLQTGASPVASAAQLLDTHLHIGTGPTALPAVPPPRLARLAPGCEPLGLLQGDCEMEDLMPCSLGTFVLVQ

IC50 [1] [nM]	IC50 [2] [nM]	IC50 [3] [nM]	SMILES
> 100	< 100	< 100	CN(C(C)(C)C)S(=O)(=O)c1cccc(-c2cnc3[nH]cc(-c4ccc5c(c4)OC(F)(F)O5)c3c2)c1 [Example 202, N-(tert-butyl)-3-(3-(2,2-difluorobenzo[d][1,3]dioxol-5-yl) 1H-pyrrolo[2,3-b]pyridin-5-yl)-N-methylbenzenesulfonamide]
> 1000	> 1000	< 100	FC1(F)Oc2ccc(-c3c[nH]c4ncc(-c5ccc(CN6CCCC6)s5)cc34)cc2O1 [Example 203, 3-(2,2-difluorobenzo[d][1,3]dioxol-5-yl)-5-(5-(pyrrolidin-1-ylmethyl)thiophen-2-yl)-1H-pyrrolo[2,3-b]pyridine]
> 1000	> 100	< 100	COc1c(F)cc(F)cc1-c1c[nH]c2ncc(-c3ccc(CN4CCCCC4)s3)cc12 [Example 178, 3-(3,5-difluoro-2-methoxyphenyl)-5-(5-(piperidin-1-ylmethyl)thiophen-2-yl)-1H-pyrrolo[2,3-b]pyridine]
> 1000	> 100	< 100	COc1c(F)cccc1-c1c[nH]c2ncc(-c3cccc(S(=O)(=O)N4CCCC4)c3)cc12 [Example 182, 3-(3-fluoro-2-methoxyphenyl)-5-(3-(pyrrolidin-1-ylsulfonyl)phenyl)-1H-pyrrolo[2,3-b]pyridine]
> 1000	> 100	< 100	Fc1cccc(-c2c[nH]c3ncc(-c4ccc(CN5CCOCC5)s4)cc23)c1Cl [Example 133]
< 100	< 100	< 100	FC1(F)Oc2cccc(-c3c[nH]c4ncc(-c5cnn(C6CCNCC6)c5)cc34)c2O1 [Example 209, 3-(2,2-difluorobenzo[d][1,3]dioxol-4-yl)-5-(1-(piperidin-4-yl)-1H-pyrazol-4-yl)-1H-pyrrolo[2,3-b]pyridine]
> 1000	> 100	< 100	COc1c(F)cccc1-c1c[nH]c2ncc(-c3cccc(S(=O)(=O)N(C)C)c3)cc12 [Example 184, 3-(3-(3-fluoro-2-methoxyphenyl)-1H-pyrrolo[2,3-b]pyridin-5-yl)-N,N-dimethylbenzenesulfonamide]
> 100	< 100	< 100	OCCN1CCN(c2cnn(-c3cnc4[nH]cc(-c5ccc6c(c5)OC(F)(F)O6)c4c3)c2)CC1 [Example 225, 2-(4-(1-(3-(2,2-difluorobenzo[d][1,3]dioxol-5-yl)-1H-pyrrolo[2,3-b]pyridin-5-yl)-1H-pyrazol-4-yl)piperazin-1-yl)ethanol]
> 100	> 100	< 100	Oc1ccccc1-c1c[nH]c2ncc(-c3ccc(CN4CCOCC4)s3)cc12 [Example 192, 2-(5-(5-(morpholinomethyl)thiophen-2-yl)-1H-pyrrolo[2,3-b]pyridin-3-yl)phenol]
> 1000	> 100	< 100	COc1c(F)cc(F)cc1-c1c[nH]c2ncc(-c3cccc(S(=O)(=O)N(C)C(C)(C)C)c3)cc12 [Example 181, N-(tert-butyl)-3-(3-(3,5-difluoro-2-methoxyphenyl)-1H-pyrrolo[2,3-b]pyridin-5-yl)-N-methylbenzenesulfonamide]
> 1000	> 100	< 100	Fc1c(-c2c[nH]c3ncc(-c4ccsc4)cc23)ccnc1Cl [Example 141, 3-(2-chloro-3-fluoropyridin-4-yl)-5-(thiophen-3-yl)-1H-pyrrolo[2,3-b]pyridine]
> 100	< 100	< 100	FC1(F)Oc2ccc(-c3c[nH]c4ncc(-c5csc(N6CCOCC6)n5)cc34)cc2O1 [Example 205, 4-(4-(3-(2,2-difluorobenzo[d][1,3]dioxol-5-yl)-1H-pyrrolo[2,3-b]pyridin-5-yl)thiazol-2-yl)morpholine]
> 100	> 100	> 100	Oc1ccccc1-c1c[nH]c2ncc(-c3ccsc3)cc12 [Example 123, 2-(5-(thiophen-3-yl)-1H-pyrrolo[2,3-b]pyridin-3-yl)phenol]
> 1000	> 100	> 100	CCS(=O)(=O)N1CCC(n2cc(-c3cnc4[nH]cc(-c5cc(F)cc(F)c5OC)c4c3)cn2)CC1 [Example 215, 3-(3,5-difluoro-2-methoxyphenyl)-5-(1-(1-(ethylsulfonyl)piperidin-4-yl)-1H-pyrazol-4-yl)-1H-pyrrolo[2,3-b]pyridine]
> 100	< 100	< 100	CS(=O)(=O)N1CCN(c2cnn(-c3cnc4[nH]cc(-c5ccc6c(c5)OC(F)(F)O6)c4c3)c2)CC1 [Example 224, 3-(2,2-difluorobenzo[d][1,3]dioxol-5-yl)-5-(4-(4-(methylsulfonyl)piperazin-1-yl)-1H-pyrazol-1-yl)-1H-pyrrolo[2,3-b]pyridine]
> 100	> 100	< 100	Oc1c(F)cccc1-c1c[nH]c2ncc(-c3ccc(CN4CCOCC4)s3)cc12 [Example 193, 2-fluoro-6-(5-(5-(morpholinomethyl)thiophen-2-yl)-1H-pyrrolo[2,3-b]pyridin-3-yl)phenol]
> 100	< 100	< 100	COc1c(F)cccc1-c1c[nH]c2ncc(-c3csc(N4CCOCC4)n3)cc12 [Example 207, 4-(4-(3-(3-fluoro-2-methoxyphenyl)-1H-pyrrolo[2,3-b]pyridin-5-yl)thiazol-2-yl)morpholine]
> 1000	> 1000	> 100	CN1CCC(n2cc(-c3cnc4[nH]cc(-c5ccc6c(c5)OC(F)(F)O6)c4c3)cn2)CC1 [Example 220, 3-(2,2-difluorobenzo[d][1,3]dioxol-5-yl)-5-(1-(1-methylpiperidin-4-yl)-1H-pyrazol-4-yl)-1H-pyrrolo[2,3-b]pyridine]
> 100	> 100	< 100	FC1(F)Oc2cccc(-c3c[nH]c4ncc(-c5csc(N6CCOCC6)n5)cc34)c2O1 [Example 199, 4-(4-(3-(2,2-difluorobenzo[d][1,3]dioxol-4-yl)-1H-pyrrolo[2,3-b]pyridin-5-yl)thiazol-2-yl)morpholine]
> 100	> 100	< 100	CN(C)S(=O)(=O)c1cccc(-c2cnc3[nH]cc(-c4cccc(F)c4Cl)c3c2)c1 [Example 135, 3-(3-(2-chloro-3-fluorophenyl)-1H-pyrrolo[2,3-b]pyridin-5-yl)-N,N-dimethylbenzenesulfonamide]
> 1000	> 1000	> 1000	O=S(=O)(c1ccc(-c2c[nH]c3nccc(-c4ccsc4)c23)cc1)N1CCC1 [Example 96, 3-(4-(azetidin-1-ylsulfonyl)phenyl)-4-(thiophen-3-yl)-1H-pyrrolo[2,3-b]pyridine]
> 1000	> 100	< 100	COc1c(F)cccc1-c1c[nH]c2ncc(-c3cnc(N4CCOCC4)s3)cc12 [Example 176, 4-(5-(3-(3-fluoro-2-methoxyphenyl)-1H-pyrrolo[2,3-b]pyridin-5-yl)thiazol-2-yl)morpholine]
> 100	> 100	< 100	Cc1ccc(-c2cnc3[nH]cc(-c4cccc(F)c4O)c3c2)o1 [Example 128, 2-fluoro-6-(5-(5-methylfuran-2-yl)-1H-pyrrolo[2,3-b]pyridin-3-yl)phenol]
> 100	< 100	< 100	COc1c(F)cc(F)cc1-c1c[nH]c2ncc(-n3cc(N4CCN(S(C)(=O)=O)CC4)cn3)cc12 [Example 217, 3-(3,5-difluoro-2-methoxyphenyl)-5-(4-(4-(methylsulfonyl)piperazin-1-yl)-1H-pyrazol-1-yl)-1H-pyrrolo[2,3-b]pyridine]
> 100	> 1000	> 100	Cc1nc(Nc2cnc3[nH]cc(-c4cccc(F)c4Cl)c3c2)sc1Cl [Example 134, 5-chloro-N-(3-(2-chloro-3-fluorophenyl)-1H-pyrrolo[2,3-b]pyridin-5-yl)-4-methylthiazol-2-amine]
> 1000	> 1000	> 1000	O=S(=O)(c1cccc(-c2c[nH]c3nccc(-c4ccsc4)c23)c1)N1CCCC1 [Example 97, 3-(3-(pyrrolidin-1-ylsulfonyl)phenyl)-4-(thiophen-3-yl)-1H-pyrrolo[2,3-b]pyridine]
> 100	> 1000	< 100	COc1ccccc1-c1c[nH]c2ncc(-c3ccc(C)o3)cc12 [Example 115, 3-(2-methoxyphenyl)-5-(5-methylfuran-2-yl)-1H-pyrrolo[2,3-b]pyridine]
> 1000	> 1000	> 1000	CCN(CC)S(=O)(=O)c1ccccc1-c1c[nH]c2nccc(-c3ccsc3)c12 [Example 95, N,N-diethyl-2-(4-(thiophen-3-yl)-1H-pyrrolo[2,3-b]pyridin-3-yl)benzenesulfonamide]
> 1000	> 100	< 100	COc1c(F)cc(F)cc1-c1c[nH]c2ncc(-c3cccc(S(=O)(=O)N4CCCC4)c3)cc12 [Example 183, 3-(3,5-difluoro-2-methoxyphenyl)-5-(3-(pyrrolidin-1-ylsulfonyl)phenyl)-1H-pyrrolo[2,3-b]pyridine]
> 100	< 100	< 100	FC1(F)Oc2ccc(-c3c[nH]c4ncc(-c5ccc(CN6CCOCC6)s5)cc34)cc2O1 [Example 200]

— US9890153B2, “Substituted 1H-pyrrolo [2, 3-b] pyridine and 1H-pyrazolo [3, 4-b] pyridine derivatives as salt inducible kinase 2 (SIK2) inhibitors” (Arrien Pharmaceuticals LLC, priority 2012, dated 2018)
